Assay results reported in ChEMBL document CHEMBL1201862, “PubChem BioAssay data set” (2004).
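Briefly, cells in 96-well plates were exposed to five compound concentrations for 48 h, and endpoints were estimated by linear interpolation. The concentration for 50% growth inhibition is given as GI50.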 Active and inactive are the calls of the source. Cut-off read from the data, not from the text of the source: active = GI50 up to about 1.1 µM and inactive = higher.

Columns and labels:
Experiment in all cases: NCI anticancer screen, dose series, 48 h
NCI/ADR-RES = test system: NCI/ADR-RES
UACC-62 = test system: UACC-62
786-0 = test system: 786-0
SR = test system: SR
SK-OV-3 = test system: SK-OV-3
MOLT-4 = test system: MOLT-4
TK-10 = test system: TK-10
NCI-H226 = test system: NCI-H226
MCF7 = test system: MCF7
CCRF-CEM = test system: CCRF-CEM
K562 = test system: K562
SNB-75 = test system: SNB-75
LOX IMVI = test system: LOX IMVI
UO-31 = test system: UO-31
HCT-116 = test system: HCT-116
MDA-MB-435 = test system: MDA-MB-435
HCT-15 = test system: HCT-15
MDA-MB-231 = test system: MDA-MB-231
HOP-62 = test system: HOP-62
PC-3 = test system: PC-3
OVCAR-8 = test system: OVCAR-8
EKVX = test system: EKVX
SW-620 = test system: SW-620
HOP-92 = test system: HOP-92
Hs-578T = test system: Hs-578T
SK-MEL-28 = test system: SK-MEL-28
SK-MEL-2 = test system: SK-MEL-2
T47D = test system: T47D
UACC-257 = test system: UACC-257
NCI-H23 = test system: NCI-H23
SNB-19 = test system: SNB-19
SF-295 = test system: SF-295
SN12C = test system: SN12C
HL-60 = test system: HL-60
M14 = test system: M14
OVCAR-4 = test system: OVCAR-4
COLO 205 = test system: COLO 205
SF-268 = test system: SF-268
HCC 2998 = test system: HCC 2998
OVCAR-5 = test system: OVCAR-5
A549 = test system: A549
HT-29 = test system: HT-29
SF-539 = test system: SF-539
ACHN = test system: ACHN
NCI-H460 = test system: NCI-H460
U-251 = test system: U-251
BT-549 = test system: BT-549
NCI-H522 = test system: NCI-H522
Malme-3M = test system: Malme-3M
OVCAR-3 = test system: OVCAR-3
KM12 = test system: KM12
RXF 393 = test system: RXF 393
MDA-N = test system: MDA-N
DU-145 = test system: DU-145
SK-MEL-5 = test system: SK-MEL-5
CAKI-1 = test system: CAKI-1
IGROV-1 = test system: IGROV-1
RPMI-8226 = test system: RPMI-8226

Measured: GI50

O=C1CS(=O)(=O)C(c2cccc(Oc3ccccc3)c2)N1c1cccc(Cl)c1 (centres undefined)
active: HCC 2998 0.16 µM
22.1 µM: HCT-15
inactive: NCI/ADR-RES 29.8 µM | UACC-62 12.5 µM | 786-0 19.8 µM | SR 12.1 µM | SK-OV-3 40.6 µM | MOLT-4 19.1 µM | TK-10 26.6 µM | NCI-H226 27.7 µM | MCF7 14.8 µM | CCRF-CEM 26.1 µM | K562 13.1 µM | SNB-75 36.3 µM | LOX IMVI 15.7 µM | UO-31 37.1 µM | HCT-116 13.8 µM | MDA-MB-435 13.9 µM | MDA-MB-231 29.1 µM | HOP-62 40.2 µM | PC-3 20.6 µM | OVCAR-8 22.1 µM | EKVX 17.6 µM | SW-620 24.8 µM | HOP-92 11.6 µM | Hs-578T 27.5 µM | SK-MEL-28 36.6 µM | SK-MEL-2 16.3 µM | T47D 16.9 µM | UACC-257 17.1 µM | NCI-H23 33.5 µM | SNB-19 43.4 µM | SF-295 33.4 µM | SN12C 31.8 µM | HL-60 30 µM | M14 26.7 µM | OVCAR-4 26.5 µM | COLO 205 18.8 µM | SF-268 23.2 µM | OVCAR-5 55.1 µM | A549 37.3 µM | HT-29 28.6 µM | SF-539 18 µM | ACHN 24.3 µM | NCI-H460 18.1 µM | U-251 21.2 µM | BT-549 29.9 µM | NCI-H522 14.9 µM | Malme-3M 20 µM | OVCAR-3 24.5 µM | KM12 26.5 µM | RXF 393 23.3 µM | MDA-N 16.6 µM | DU-145 66.8 µM | SK-MEL-5 15.7 µM | CAKI-1 25.7 µM | IGROV-1 19.1 µM

C=C1CC(COc2ccc3ccc(=O)oc3c2)(c2ccccc2)OC1=O (centres undefined)
inactive: NCI/ADR-RES 2.48 µM | UACC-62 1.45 µM | 786-0 1.46 µM | SK-OV-3 5.02 µM | MOLT-4 1.25 µM | TK-10 1.54 µM | NCI-H226 5.3 µM | MCF7 1.26 µM | SNB-75 5.92 µM | UO-31 5.19 µM | MDA-MB-435 2.61 µM | MDA-MB-231 2.52 µM | HOP-62 11.6 µM | PC-3 2.69 µM | OVCAR-8 2.21 µM | EKVX 7.5 µM | Hs-578T 4.03 µM | SK-MEL-28 2.3 µM | SK-MEL-2 1.53 µM | T47D 1.87 µM | UACC-257 1.71 µM | SNB-19 15 µM | SF-295 6.78 µM | SN12C 2.73 µM | M14 1.18 µM | OVCAR-4 1.49 µM | SF-268 3.27 µM | HCC 2998 1.27 µM | OVCAR-5 5.87 µM | A549 10.6 µM | SF-539 3.46 µM | ACHN 2.01 µM | NCI-H460 10.5 µM | U-251 8.93 µM | BT-549 1.54 µM | Malme-3M 2.33 µM | OVCAR-3 1.61 µM | KM12 3.27 µM | DU-145 2.77 µM | SK-MEL-5 1.47 µM | IGROV-1 1.64 µM
active: SR 0.867 µM | CCRF-CEM 0.233 µM | K562 0.266 µM | LOX IMVI 0.942 µM | HCT-116 0.597 µM | SW-620 0.316 µM | HOP-92 0.685 µM | NCI-H23 0.912 µM | HL-60 0.0803 µM | COLO 205 0.625 µM | HT-29 0.627 µM | NCI-H522 0.501 µM | RPMI-8226 0.143 µM | MDA-N 1.11 µM | CAKI-1 0.885 µM
1.87 µM: HCT-15

N#Cc1sc2c(c1OC(=O)c1cccs1)c(=O)n(-c1ccccc1)c(=S)n2-c1ccccc1
inactive: NCI/ADR-RES 21.8 µM | UACC-62 17.2 µM | 786-0 31.4 µM | SR 25.6 µM | SK-OV-3 29.6 µM | MOLT-4 19.4 µM | TK-10 31 µM | NCI-H226 19.5 µM | MCF7 21.5 µM | CCRF-CEM > 10 µM | K562 22 µM | SNB-75 38.7 µM | LOX IMVI 20.3 µM | UO-31 16.1 µM | HCT-116 15.2 µM | MDA-MB-435 29.9 µM | MDA-MB-231 20.1 µM | HOP-62 19.6 µM | PC-3 18 µM | OVCAR-8 25.9 µM | EKVX 33.2 µM | SW-620 21.8 µM | Hs-578T 15.2 µM | SK-MEL-28 21.9 µM | SK-MEL-2 21.1 µM | T47D 10.9 µM | UACC-257 32 µM | NCI-H23 25.3 µM | SNB-19 26.5 µM | SF-295 21 µM | SN12C 19.2 µM | HL-60 21.3 µM | M14 19.1 µM | OVCAR-4 20.7 µM | COLO 205 19.9 µM | SF-268 30.1 µM | A549 31 µM | HT-29 29.5 µM | SF-539 22.4 µM | NCI-H460 28.2 µM | U-251 20.2 µM | BT-549 15.5 µM | NCI-H522 16.4 µM | RPMI-8226 18.7 µM | Malme-3M 18.2 µM | OVCAR-3 31.1 µM | KM12 18.9 µM | RXF 393 14.9 µM | MDA-N 26.7 µM | DU-145 32.4 µM | SK-MEL-5 16 µM | CAKI-1 32.4 µM | IGROV-1 19.8 µM
17.3 µM: HCT-15

CCOP(=O)(OCC)C(C)(C)OC(=O)NC(F)(F)F
inactive: NCI/ADR-RES > 100 µM | UACC-62 > 100 µM | 786-0 > 100 µM | SR > 100 µM | SK-OV-3 > 100 µM | MOLT-4 > 100 µM | TK-10 > 100 µM | NCI-H226 12.7 µM | MCF7 > 100 µM | CCRF-CEM > 100 µM | K562 > 100 µM | SNB-75 > 100 µM | LOX IMVI > 100 µM | UO-31 > 100 µM | HCT-116 > 100 µM | MDA-MB-435 > 100 µM | MDA-MB-231 > 100 µM | HOP-62 > 100 µM | PC-3 > 100 µM | OVCAR-8 > 100 µM | EKVX > 100 µM | SW-620 > 100 µM | Hs-578T > 100 µM | SK-MEL-28 > 100 µM | SK-MEL-2 > 100 µM | T47D > 100 µM | UACC-257 > 100 µM | NCI-H23 > 100 µM | SNB-19 > 100 µM | SF-295 > 100 µM | SN12C > 100 µM | HL-60 > 100 µM | M14 > 100 µM | OVCAR-4 > 100 µM | COLO 205 > 100 µM | SF-268 > 100 µM | HCC 2998 > 100 µM | OVCAR-5 > 100 µM | A549 > 100 µM | HT-29 > 100 µM | SF-539 > 100 µM | ACHN > 100 µM | NCI-H460 > 100 µM | U-251 > 100 µM | BT-549 > 100 µM | RPMI-8226 > 100 µM | Malme-3M > 100 µM | OVCAR-3 > 100 µM | KM12 > 100 µM | RXF 393 > 100 µM | MDA-N > 100 µM | DU-145 > 100 µM | SK-MEL-5 > 100 µM | CAKI-1 > 100 µM | IGROV-1 > 100 µM
> 100 µM: HCT-15
